Results published in paper PMC6627486, “Ipomoeassin F Binds Sec61α to Inhibit Protein Translocation” (Journal of the American Chemical Society, 2019).
Where two headings read alike, the source gives them in different places.

Assays:
HCT R66K = experiment: Alamar Blue viability, HCT116 Sec61α R66K (96 h); type: cell-based, human
Experimental: (§1) AlamarBlue Cytotoxicity Assay
(§2) MDA-MB-231, MCF-10A and HCT116. Viable cells were counted with a hemocytometer immediately before each experiment . Experiments were done in triplicate. First, 100 μL of MDA-MB-231 cells or MCF-10A cells at the density of 50,000 cells/mL was seeded in a 96-well plate (5,000 cells/well) and then incubated at 37 °C and 5% CO2 for 24 h. The compounds were dissolved in DMSO (dimethyl sulfoxide) to make drug stocks (10 mM). The stock solutions were diluted with the complete DMEM high glucose culture medium to make a series of gradient fresh working solutions right before each test. Subsequently, the cells were treated with 100 μL of the freshly made gradient working solution in a total volume of 200 μL/well for 72 h. After that, the media were discarded and 200 μL of the fresh complete medium containing 10% of AlamarBlue (resazurin) stock solution was added to each well. The plate was then incubated at 37 °C and 5% CO2 for another 3 h. Emission of each well at 620 nm was detected by a microplate reader (BioTek Synergy H1) at excitation 580 nm. For HCT116 WT and mutant lines, cells were seeded at 1000 cells/ well in complete McCoys medium. […] Cells were treated for 96 h, then viability measured with AlamarBlue, detected using the conditions described but with a BMG Fluostar Optima Microplate Reader. […]
(§3) was determined. […]

HepG2 cells = experiment: Pulse-chase analysis of protein secretion in HepG2 cells; type: cell-based, human; details: for secretory proteins in cell media: HepG2, 100 nM Ipom-F or 42 nM mycolactone 13.5 h, 100 nM bortezomib 2 h
Experimental: Pulse‐Chase Analysis of Protein Secretion in HepG2 Cells
The secretion assay was performed using a pulse–chase approach as described previously.20 HepG2 cells were treated with DMSO, 100 nM compound 8, 100 nM Ipom-F or […] mycolactone for 13.5 h before initiating the experiment, whereas pre-treatment with bortezomib 100 nM (Stratech) or 2.5 μg/ml brefeldin A were performed for 2 h and 1 h, respectively. Cells were starved in Met‐ and Cys‐free DMEM (Invitrogen) for 20 min at 37°C. Labeling was initiated by addition of fresh starvation medium containing […] [35S]Met and [35S]Cys protein labeling mix (Perkin Elmer; specific activity >1,000 Ci/mmol) for 15 min. After washing with PBS, cells were incubated in serum‐free DMEM supplemented with excess unlabeled L‐Met and L‐Cys (2 mM final concentration) for 2 h. The compounds were included throughout the starvation, pulse and chase. Secreted proteins in the media were recovered by precipitation with 13% trichloroacetic acid, washed in acetone and dissolved in 2x sample buffer. Cells were solubilized with Triton X‐100 lysis buffer (20 mM Tris, pH 7.5, 150 mM NaCl, 1% TX-100, 1 mM EDTA, 1 mM EGTA) supplemented with protease inhibitor cocktail and phenylmethylsulfonyl fluoride. Equal amounts

Sec61α = experiment: Competition with CT7 photo-affinity labeling of Sec61α in sheep rough microsomes; type: binding; details: 10 μM compound, 100 nM CT7, sheep rough microsomes
Experimental: MDA-MB-231 cells were seeded on fibronectin-coated coverslips at 70% confluency in a 48-well plate and cultured at 37 °C and 5% CO2. After 24 h, culture medium was replaced with fresh medium containing a 20 µM competitor or an equal volume of DMSO vehicle for 30 min at 37 °C and 5% CO2, followed by addition of 0.2 µM (final concentration) fluorescent probe 12. After 1 h incubation at 37 °C and 5% CO2, the coverslips were mounted onto a glass slide with a mounting medium with or without 0.5 µg/ml DAPI.
The fluorescent images were acquired with a confocal microscope (Leica TCS SP5) using 405 nm excitation and 562 nm excitation. For the ER co-localization studies, 1 uM ER-Tracker™ Blue-White DPX was added to the medium after 1 h incubation with probe 12. After 5 min incubation, the coverslips were mounted onto a glass slide and the images were acquired as described above.
CT7 photo-affinity labeling and click chemistry were done as previously described.14 Briefly, SRMs (sheep rough microsomes, isolated as described in reference15) containing 100 nM Sec61 were treated with 10 µM ipomoeassin F/mycolactone or 1% DMSO for 30 min at 0°C, followed by incubation with 100 nM CT7 for 10 min RT. Samples were then photolyzed for 10 min and crosslinked proteins were detected by click chemistry, SDS-PAGE, and in-gel fluorescent scanning (Typhoon Trio, GE Healthcare). […]

HCT D60G = experiment: Alamar Blue viability, HCT116 Sec61α D60G (96 h); type: cell-based, human
Experimental: as §1, §2, §3

[1] = AlamarBlue cytotoxicity assay, MCF-10A; type: cell-based, human; details: human
Experimental: as §1
MDA-MB-231, MCF-10A and HCT116. Viable cells were counted with a hemocytometer immediately before each experiment . Experiments were done in triplicate. First, 100 μL of MDA-MB-231 cells or MCF-10A cells at the density of 50,000 cells/mL was seeded in a 96-well plate (5,000 cells/well) and then incubated at 37 °C and 5% CO2 for 24 h. The compounds were dissolved in DMSO (dimethyl sulfoxide) to make drug stocks (10 mM). The stock solutions were diluted with the complete DMEM high glucose culture medium to make a series of gradient fresh working solutions right before each test. Subsequently, the cells were treated with 100 μL of the freshly made gradient working solution in a total volume of 200 μL/well for 72 h. After that, the media were discarded and 200 μL of the fresh complete medium containing 10% of AlamarBlue (resazurin) stock solution was added to each well. The plate was then incubated at 37 °C and 5% CO2 for another 3 h. Emission of each well at 620 nm was detected by a microplate reader (BioTek Synergy H1) at excitation 580 nm. […]
Microplate Reader. The percentage of viability compared to the negative control (DMSO-treated cells) […]
as §3

[2] = Homo sapiens, HCT-116, read-out: cell viability IC50

Structure (SMILES) | IC50 (HCT R66K; [2]) [µM] | global protein synthesis (total radiolabeled proteins) (HepG2 cells; HepG2, 100 nM, 13.5 h) | secretory proteins in cell media (HepG2 cells) | competition with CT7 photo-cross-linking to Sec61α (Sec61α) | IC50 (HCT D60G; [2]) [µM] | IC50 at 72 h [1] [µM] | IC50 (HCT R66K; read-out: cell viability IC50) [µM] | IC50 (HCT D60G; read-out: cell viability IC50) [µM] | IC50 ([1]; 72 h) [µM]
C/C=C(\C)C(=O)O[C@@H]1[C@@H](O)[C@@H]2O[C@H]3[C@H](O[C@@H](CCCCC)CCCCCCC(=O)CCC(=O)OC[C@@H](O2)[C@H]1OC(=O)/C=C/c1ccccc1)O[C@H](C)[C@H](OC(C)=O)[C@@H]3O [ipomoeassin F] | 0.131 ± 0.015 | did not inhibit global protein synthesis | substantial reduction | similarly potent competition | 0.0881 ± 0.0103 | 0.0053 | – | – | –
CC(=C\C=C\C(C)=C\[C@H](O)[C@@H](O)C[C@H](C)O)/C=C(C)/C=C/C(=O)O[C@H]1CCCC(=O)O[C@@H]([C@@H](C)C/C(C)=C/[C@@H](C)[C@H](O)C[C@@H](C)O)C/C=C(\C)C[C@@H]1C [mycolactone, reference compound] | – | – | substantial reduction | efficiently competes with CT7 | – | – | > 0.33 | > 0.33 | –
C/C=C(\C)C(=O)O[C@H]1[C@H](OC(=O)/C=C/c2ccc(OCc3cn(CCOCCOCCOCCNC(=O)CCCC[C@@H]4SC[C@@H]5NC(=O)N[C@@H]54)nn3)cc2)[C@@H](O)[C@@H]2O[C@H]3[C@H](O[C@@H](CCCCC)CCCCCCC(=O)CCC(=O)OC[C@H]1O2)O[C@H](C)[C@H](OC(C)=O)[C@@H]3O [compound 5] | – | – | – | – | – | – | – | – | 0.0217
